Test results reported in US20120121691A1, “Method for Increasing the Production of a Specific ACYL-Chain Dihydroceramide(s) for Improving the Effectiveness of Cancer Treatments” (priority 2010, published 2012).

What was measured:
COG-LL-317 = test: DIMSCAN cytotoxicity assay, COG-LL-317; type: cell-based; settings: COG-LL-317, sphinganine 1 μM, GT-11 0.5 μM, 48 hours
Description: Cell culture. The pre-T acute lymphoblastic leukemia cell lines MOLT-4 and CCRF-CEM, small cell lung cancer cell line NCI-H146, non-small cell lung cancer cell line NCI-H1792, colon cancer cell lines LoVo and HT-29, and breast cancer cell line MCF-7, were purchased from American Type Culture Collection, Manassas, Va., and grown at 20%/5% and 5%/5%, respectively. COG-LL-317 and COG-LL-332 pre-T acute lymphoblastic leukemia cell lines were obtained from the TTUHSC Cancer Center Cell Repository and grown at 5%/5%. Cell line identities were verified by short tandem repeat analysis and mycoplasma testing was performed. Cell lines were maintained in RPMI-1640 medium supplemented with 10% fetal bovine serum (FBS, Invitrogen) in humidified, 37° C. incubators. For all experiments, ALL cell lines were seeded at […] in RPMI-1640 medium supplemented with 15% fetal bovine serum. Solid tumor cell lines were plated at 5×cells/mL in RPMI-1640 medium supplemented with 10% fetal bovine serum.
Cytotoxicity Assay. Cytoxicity is determined using the DIMSCAN assay system (R. Proffitt et al., Cytometry 24, 204-213 (1996); T. Frgala et al., Proc. AACR, 36, 303 (1995). The system employs digital imaging microscopy to quantify viable cells, which selectively accumulate fluorescein diacetate to become brightly fluorescent. The system is capable of measuring cytotoxicity over a 4-5 log dynamic range by quenching the residual fluorescence of dead and dying cells with eosin Y and quantifying the total fluorescence of viable cells using digital thresholding. Measured fluorescence is directly proportionate to the number of viable cells. A comparison of the total fluorescence of a drug-treated cell population to the fluorescence of a similar number of untreated cells yields a survival fraction. […]
The addition of C22:0-fatty acid, but not C18:0 or C22:1 fatty acids, increased cytotoxicity (FIGS. 7A-7F). […] Cytotoxicity was measured using DIMSCAN, and data was normalized to control and plotted as survival fraction (y-axis). […]

[1] = tested on: intracellular sphingolipids, COG-LL-317; test: LC/MS/MS analysis of intracellular sphingolipids, COG-LL-317; type: cell-based, human; settings: for increase in corresponding dihydroceramide over sphinganine+GT-11 alone: COG-LL-317, fatty acid with sphinganine+GT-11, six hours, P<0.05
Method: LC/MS/MS analysis of intracellular sphingolipids. Sphingolipids were separated using an Agilent 1200 HPLC (LC) and determined by ESI/MS/MS performed on a AB SCIEX 4000 QTRAP Hybrid Triple Quadrupole/Linear Ion Trap mass spectrometer (MS), operating in a multiple reaction monitoring positive ionization mode as described previously with moderate modifications (25). Briefly, 50 μL of a solution (1 μM) of internal sphingolipid standards (including -sphingosine, -sphinganine, -sphingosine-1-phosphate, and -ceramide) was added to each cell pellet sample. Lipids of each sample were extracted twice with 2 mL of the ethyl acetate/isopropyl alcohol/water (60:28:12; v:v) solvent system. Supernatants were transferred to glass tubes (Kimble Chase) and evaporated under air (10 PSI) at 40° C. After reconstitution in methanol (4 mL), 1 ml of each sample was separated for the determination of lipid phosphate. Remaining sample (3 mL) was dried and used for sphingolipid quantification. For ESI/MS/MS, the dried lipid sample was dissolved in mobile phase A. Samples were injected (10 μL) and separated on a Spectra C8SR, 150×3.0 mm, 3-μm particle size column using gradient-elution (mobile phase A/B, prepared as previously described).
Data acquisition, peak integration and analyte quantitation were performed using ABI/SCIEX Analyst 1.4.2 Software. Sphingolipid data were normalized to lipid phosphate as previously described (26). Briefly, samples were dried under air (10 PSI) and lipids were extracted using the method of Bligh and Dyer (27). Of importance for phosphate assay, only Kimble Chase disposable borosilicate tubes were used for minimal sample contamination. Organic phase was transferred to glass tubes and a known volume was separated to a new tube and dried at 80° C. Phosphate standards and dried samples were then heated with ashing buffer (water:10 N:70% [40:9:1]) at 160° C. overnight. Samples were then incubated with ammonium molybdate and ascorbic acid as previously described, and absorbance ([…]) was read using a SpectraMax.
Cells were treated for 48 hours with Sa (0-4 μM)+/−GT-11 (0.5 μM) with or without C18:0-, C22:0- or C22:1-fatty acids. Cytotoxicity was measured using DIMSCAN, and data was normalized to control and plotted as survival fraction (y-axis). Gray and white symbols represent long and very long chain fatty acids, respectively. Gray lines encompass data used for sphingolipid correlation analysis with cytotoxicity. Datum point, mean; error bar, SEM. […]
Cytotoxicity was measured using DIMSCAN, and data was normalized to control and plotted as survival fraction (y-axis).

For `CCCCCCCCCCCCCCCCCCCCCC(=O)O` [C22:0-fatty acid], the “effect of fatty acid co-treatment on cytotoxicity of sphinganine with GT-11” value (COG-LL-317) was “increased”, the “increase of C22:0-dihydroceramide compared to 4-HPR alone” value ([1]; COG-LL-317, fatty acid with 4-HPR 1.1 μM, six hours, P<0.001) was 11 fold and the “increase of C22:0-dihydroceramide over sphinganine+GT-11 alone” value ([1]; COG-LL-317, fatty acid with sphinganine 1 μM plus GT-11 0.5 μM, six hours, P<0.003) was 13 fold. For the same compound, the “increase in corresponding dihydroceramide over sphinganine+GT-11 alone” value [1] was “significant increases”.
With `CCCCCCCC/C=C\CCCCCCCCCCCC(=O)O` [C22:1-fatty acid] the “effect of fatty acid co-treatment on cytotoxicity of sphinganine with GT-11” value (COG-LL-317) was “not” and the “increase in corresponding dihydroceramide over sphinganine+GT-11 alone” value [1] was “significant increases”.
